Experimental data reported in paper PMC5011342, “A high throughput drug screening assay to identify compounds that promote oligodendrocyte differentiation using acutely dissociated and purified oligodendrocyte precursor cells” (BMC Research Notes, 2016).
Where two headings read alike, the source gives them in different places.

How the values were obtained:
expanded OPCs = assay: cells; conditions: for viability at 0.1 µM / viability at 1 µM / viability at 10 µM: Rattus norvegicus, 72 h; for 0.1 µM (% DMSO) / 1 µM (% DMSO) / 10 µM (% DMSO): alamarBlue viability of expanded OPCs, relative to DMSO control; for 0.1 µM (% DMSO): compound at 0.1 µM; for 1 µM (% DMSO): compound at 1 µM; for 10 µM (% DMSO): compound at 10 µM
Outline: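 Toxicity screen: compounds added at 0.1, 1 and 10 µM to PDGF-AA-expanded OPCs in 96-well plates, 3-day incubation at 37 °C, 10% CO2, then alamarBlue 1:10 for 4 h with fluorescence readout. Results set screening doses of 10/2, 2/0.4 or 0.4/0.08 µM.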

[1] = test system: acutely dissociated and purified rat OPCs; assay: Acute OL differentiation assay (MBP expression/cell, immunofluorescent image quantification); assay type: cell-based
Outline: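 This acute differentiation assay used purified rat OPCs from postnatal day 6–7 pups, seeded into PDL/laminin-coated 96-well plates in differentiation medium lacking PDGF and FGF. Compounds were applied in quadruplicate after a 1–2 h preincubation at 37 °C, 10 % CO2, with 0.1 % DMSO negative and 40 ng/ml T3 positive controls in eight wells. After fixation on DIV4, anti-MBP immunofluorescence images yielded MBP expression/cell.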

[2] = read-out: 0.1 µM (% DMSO), alamarBlue viability of expanded OPCs, compound at 0.1 µM, sheet All Tox data
[3] = read-out: 1 µM (% DMSO), alamarBlue viability of expanded OPCs, compound at 1 µM, sheet All Tox data
[4] = read-out: 10 µM (% DMSO), alamarBlue viability of expanded OPCs, compound at 10 µM, sheet All Tox data
[5] = Rattus norvegicus, 2 uM test compound, relative to quetiapine, sheet "All OLga data", read-out: OL differentiation, 2 uM (% Quet)
[6] = Rattus norvegicus, 10 uM test compound, relative to quetiapine, sheet "All OLga data", read-out: OL differentiation, 10 uM (% Quet)
[7] = Rattus norvegicus, test compound at 2 uM, NCC library screen, sheet "All OLga data", relative to quetiapine, read-out: 2 uM (% Quet)
[8] = Rattus norvegicus, test compound at 10 uM, NCC library screen, sheet "All OLga data", relative to quetiapine, read-out: 10 uM (% Quet)
[9] = read-out: 0.1 µM (% DMSO), alamarBlue viability, NCC library compound at 0.1 µM, sheet "All Tox data"
[10] = read-out: 1 µM (% DMSO), alamarBlue viability, NCC library compound at 1 µM, sheet "All Tox data"
[11] = read-out: 10 µM (% DMSO), alamarBlue viability, NCC library compound at 10 µM, sheet "All Tox data"
[12] = Rattus norvegicus, 0.4 uM test compound, relative to quetiapine, sheet "All OLga data", read-out: OL differentiation, 0.4 uM (% Quet)
[13] = Rattus norvegicus, test compound at 0.4 uM, NCC library screen, sheet "All OLga data", relative to quetiapine, read-out: 0.4 uM (% Quet)
[14] = Rattus norvegicus, 0.08 uM test compound, relative to quetiapine, sheet "All OLga data", read-out: OL differentiation, 0.08 uM (% Quet)
[15] = Rattus norvegicus, test compound at 2 uM, MBP expression relative to quetiapine, NCC library screen, sheet "All OLga data", read-out: 2 uM (% Quet)
[16] = Rattus norvegicus, test compound at 10 uM, MBP expression relative to quetiapine, NCC library screen, sheet "All OLga data", read-out: 10 uM (% Quet)

| SMILES | viability at 0.1 µM (expanded OPCs; [2]) | viability at 1 µM (expanded OPCs; [3]) | viability at 10 µM (expanded OPCs; [4]) | activation at 2 µM [1, 5] | activation at 2 µM [1, 7] | activation at 10 µM [1, 8] | viability at 0.1 µM (expanded OPCs; [9]) | viability at 1 µM (expanded OPCs; [10]) | viability at 10 µM (expanded OPCs; [11]) | also measured |
| --- | --- | --- | --- | --- | --- | --- | --- | --- | --- | --- |
| C[C@]12CC[C@H]3[C@@H](CCC4=CC(=O)CC[C@@H]43)[C@@H]1CC[C@@H]2O [Nandrolone] | 94.4% | 98.5% | 96.2% | -5.9% | – | – | – | – | – | activation at 10 µM [1, 6]: -26.5% |
| c1ccc2c(CC3=NCCN3)cccc2c1 [Naphazoline] | – | – | – | – | -4.8% | -45.4% | – | – | – | 0.1 µM (% DMSO) (expanded OPCs): 92.9 % DMSO; 1 µM (% DMSO) (expanded OPCs): 92.8 % DMSO; 10 µM (% DMSO) (expanded OPCs): 78.6 % DMSO |
| COc1ccc2cc([C@H](C)C(=O)O)ccc2c1 [Naproxen] | – | – | – | – | 1% | -0.6% | 91.1% | 95.1% | 94% | – |
| CC(C)[C@H]1CC[C@H](C(=O)N[C@H](Cc2ccccc2)C(=O)O)CC1 [Nateglinide] | 93.4% | 92.4% | 99.5% | -26.4% | – | – | – | – | – | activation at 10 µM [1, 6]: -12.7% |
| CCc1nn(CCCN2CCN(c3cccc(Cl)c3)CC2)c(=O)n1CCOc1ccccc1 [Nefazodone] | 99.6% | 111% | 42.8% | 0.4% | – | – | – | – | – | activation at 0.4 µM [1, 12]: -5.2% |
| Cc1c(O)cccc1C(=O)N[C@@H](CSc1ccccc1)[C@H](O)CN1C[C@H]2CCCC[C@H]2C[C@H]1C(=O)NC(C)(C)C [Nelfinavir] | 100% | 59% | 11.3% | -84.5% | – | – | – | – | – | activation at 0.4 µM [1, 12]: -21.8% |
| Cc1ccnc2c1NC(=O)c1cccnc1N2C1CC1 [Nevirapine] | 93.7% | 90.2% | 93.3% | 0.24% | – | – | – | – | – | activation at 10 µM [1, 6]: 15.9% |
| O=C(O)c1cccnc1 [Niacin] | – | – | – | – | -3.6% | 3.6% | – | – | – | 0.1 µM (% DMSO) (expanded OPCs): 92.4 % DMSO; 1 µM (% DMSO) (expanded OPCs): 94.0 % DMSO; 10 µM (% DMSO) (expanded OPCs): 85.5 % DMSO |
| NC(=O)c1cccnc1 [Niacinamide] | – | – | – | – | -37.7% | -38.5% | 90.4% | 91% | 80.9% | – |
| O=C(CCNNC(=O)c1ccncc1)NCc1ccccc1 [Nialamide] | – | – | – | – | 2.8% | 14.8% | 95% | 96.2% | 91.7% | – |
| COC(=O)C1=C(C)NC(C)=C(C(=O)OCCN(C)Cc2ccccc2)C1c1cccc([N+](=O)[O-])c1 (stereo not drawn) [Nicardipine] | – | – | – | – | – | – | 85.3% | 51.8% | 14.3% | activation at 0.08 µM ([1]; Rattus norvegicus, test compound at 0.08 uM, NCC library screen, sheet "All OLga data", relative to quetiapine, read-out: 0.08 uM (% Quet)): 8.8%; activation at 0.4 µM [1, 13]: -29% |
| O=C(NCCO[N+](=O)[O-])c1cccnc1 [Nicorandil] | – | – | – | – | 14.7% | 3.2% | 92.6% | 85.6% | 82.2% | – |
| CN1CCC[C@H]1c1cccnc1 [Nicotine] | – | – | – | – | – | – | – | – | – | viability at 0.1 µM (expanded OPCs; read-out: 0.1 µM (% DMSO)): 92.9%; viability at 1 µM (expanded OPCs; read-out: 1 µM (% DMSO)): 89.4%; viability at 10 µM (expanded OPCs; read-out: 10 µM (% DMSO)): 93.5%; activation at 2 µM ([1]; Rattus norvegicus, read-out: 2 uM (% Quet)): 12.3%; activation at 10 µM ([1]; Rattus norvegicus, read-out: 10 uM (% Quet)): 10.9% |
| OCc1cccnc1 [Nicotinyl Alcohol] | – | – | – | – | -9.3% | -3.3% | 88.5% | 90.1% | 89.3% | – |
| Cn1c(NCCN(CCO)CCCc2ccc([N+](=O)[O-])cc2)cc(=O)n(C)c1=O [Nifekalant] | 94.4% | 97.6% | 109% | -9.4% | – | – | – | – | – | activation at 10 µM [1, 6]: 6% |
| CN1C(=O)CN=C(c2ccccc2)c2cc([N+](=O)[O-])ccc21 [Nimetazepam] | – | – | – | 6.5% | – | – | 89.5% | 82.8% | 81.8% | activation at 10 µM [1, 6]: -0.15% |
| COCCOC(=O)C1=C(C)NC(C)=C(C(=O)OC(C)C)C1c1cccc([N+](=O)[O-])c1 (stereo not drawn) [Nimodipine] | – | – | – | – | 4.8% | – | 88% | 87.4% | 54.5% | activation at 0.4 µM [1, 13]: -13.1% |
| COC(=O)C1=C(C)NC(C)=C(C(=O)OCC(C)C)C1c1ccccc1[N+](=O)[O-] (stereo not drawn) [Nisoldipine] | 94.2% | 11.9% | 11.4% | – | – | – | – | – | – | activation at 0.08 µM [1, 14]: -23.7%; activation at 0.4 µM [1, 12]: -133% |
| CN(C)CCCC1(c2ccc(F)cc2)OCc2cc(C#N)ccc21 (stereo not drawn) [Nitalapram, reference compound] | 85.9% | 101% | 110% | 33% | 37.5% | 38.6% | 95.9% | 94.9% | 91.9% | 0.1 µM (% DMSO) (expanded OPCs): 107.3 % DMSO; 1 µM (% DMSO) (expanded OPCs): 108.9 % DMSO; 10 µM (% DMSO) (expanded OPCs): 99.4 % DMSO; activation at 10 µM [1, 6]: 46.5%; activation at 2 µM [1, 15]: 30.4%; activation at 10 µM [1, 16]: 6.5%; EC50 ([1]; Rattus norvegicus, average EC50 for induction of OL differentiation from independent biological replicates, eight concentrations): 1.1 µM; hit in OL differentiation assay, MRF-TMC ([1]; ● = confirmed hit in this paper's assay): ● |
| CC(=O)Oc1ccccc1C(=O)Nc1ncc([N+](=O)[O-])s1 [Nitazoxanide] | – | – | – | -75.9% | – | – | 91% | 96.5% | 55.7% | – |
| O=C1CN=C(c2ccccc2)c2cc([N+](=O)[O-])ccc2N1 [Nitrazepam] | 84.2% | 88.9% | 95% | 7.3% | – | – | – | – | – | activation at 10 µM [1, 6]: -25.3% |
| CCOC(=O)C1=C(C)NC(C)=C(C(=O)OC)C1c1cccc([N+](=O)[O-])c1 (stereo not drawn) [Nitrendipine] | 104% | 90.7% | 35.6% | -27% | – | – | – | – | – | activation at 0.4 µM [1, 12]: -4.7% |
| O=C1CN(/N=C/c2ccc([N+](=O)[O-])o2)C(=O)N1 [Nitrofurantoin] | – | – | – | – | -26.2% | -72.2% | – | – | – | 0.1 µM (% DMSO) (expanded OPCs): 101.2 % DMSO; 1 µM (% DMSO) (expanded OPCs): 101.9 % DMSO; 10 µM (% DMSO) (expanded OPCs): 87.2 % DMSO |
| CNC(=C[N+](=O)[O-])NCCSCc1csc(CN(C)C)n1 [Nizatidine] | 92.6% | 89% | 96.6% | -1.7% | – | – | – | – | – | activation at 10 µM [1, 6]: 13% |
| COc1ccc(-c2cc(=O)c3c(OC)c(OC)c(OC)c(OC)c3o2)cc1OC [Nobiletin] | 76.3% | 28.1% | 28.1% | – | – | – | – | – | – | activation at 0.08 µM [1, 14]: 8.4%; activation at 0.4 µM [1, 12]: -28.4% |
| NC[C@H](O)c1ccc(O)c(O)c1 [Norepinephrine] | – | – | – | – | – | – | – | – | – | 0.1 µM (% DMSO) (expanded OPCs): 99.4 % DMSO; 1 µM (% DMSO) (expanded OPCs): 99.0 % DMSO; 10 µM (% DMSO) (expanded OPCs): 68.5 % DMSO; activation at 2 µM [1, 15]: -1.9%; activation at 10 µM [1, 16]: -78% |
| C#C[C@]1(O)CC[C@H]2[C@@H]3CCC4=CC(=O)CC[C@@H]4[C@H]3CC[C@@]21C [Norethindrone] | – | – | – | – | -0.9% | -32% | 95% | 87.2% | 80.6% | – |
| C#C[C@]1(OC(C)=O)CC[C@H]2[C@@H]3CCC4=CC(=O)CC[C@@H]4[C@H]3CC[C@@]21C [Norethisterone acetate] | – | – | – | – | -15% | -14.3% | 103% | 93.1% | 101% | – |
| CCn1cc(C(=O)O)c(=O)c2cc(F)c(N3CCNCC3)cc21 [Norfloxacin] | – | – | – | – | -20.2% | -13% | – | – | – | 0.1 µM (% DMSO) (expanded OPCs): 111.0 % DMSO; 1 µM (% DMSO) (expanded OPCs): 105.5 % DMSO; 10 µM (% DMSO) (expanded OPCs): 99.0 % DMSO |
